# Data: patent US11666640B2, “Glucose oxidase compositions as a neonate anticonvulsant” (PENN STATE RESEARCH FOUNDATION, priority 2018, dated 2023)
# Entries after “also recorded” stand apart in the source; their conditions may differ.
# Legend:
# [1] = system: sodium, potassium or calcium channels; assay: Na+, K+ and Ca2+ currents in cultured cortical neurons; type: cell-based, mouse; conditions: 10 mM NaGcA; sodium salt
# Description: Experiments were designed to answer the question as to what is/are the molecular target(s) of gluconate. Ion channel regulation was first investigated where a comparison of NaGcA on sodium, potassium or calcium channels was made. […] See, FIGS. 2A-2F. Although it is not necessary to understand the mechanism of an invention, it is believed that since gluconic acid is an organic anion, it might affect neuronal anion channels.
# hippocampal slices = assay: Field potential recording of epileptiform activity in hippocampal slices (CA3 pyramidal layer); type: cell-based, mouse
# CLC-3 Cl− channels = target: T1, CLC-3 Cl− channels (Mus musculus, UniProt P51791); assay: Voltage-dependent outward rectifying Cl− currents in CA3 pyramidal neurons of hippocampal slices; type: cell-based
# T1 construct: CA3 pyramidal neurons of hippocampal slices from neonatal mice; from tissue; host or cells: acute hippocampal slices (CA3 pyramidal neurons), C57BL/6 mice
# T1 sequence (P51791 1-818): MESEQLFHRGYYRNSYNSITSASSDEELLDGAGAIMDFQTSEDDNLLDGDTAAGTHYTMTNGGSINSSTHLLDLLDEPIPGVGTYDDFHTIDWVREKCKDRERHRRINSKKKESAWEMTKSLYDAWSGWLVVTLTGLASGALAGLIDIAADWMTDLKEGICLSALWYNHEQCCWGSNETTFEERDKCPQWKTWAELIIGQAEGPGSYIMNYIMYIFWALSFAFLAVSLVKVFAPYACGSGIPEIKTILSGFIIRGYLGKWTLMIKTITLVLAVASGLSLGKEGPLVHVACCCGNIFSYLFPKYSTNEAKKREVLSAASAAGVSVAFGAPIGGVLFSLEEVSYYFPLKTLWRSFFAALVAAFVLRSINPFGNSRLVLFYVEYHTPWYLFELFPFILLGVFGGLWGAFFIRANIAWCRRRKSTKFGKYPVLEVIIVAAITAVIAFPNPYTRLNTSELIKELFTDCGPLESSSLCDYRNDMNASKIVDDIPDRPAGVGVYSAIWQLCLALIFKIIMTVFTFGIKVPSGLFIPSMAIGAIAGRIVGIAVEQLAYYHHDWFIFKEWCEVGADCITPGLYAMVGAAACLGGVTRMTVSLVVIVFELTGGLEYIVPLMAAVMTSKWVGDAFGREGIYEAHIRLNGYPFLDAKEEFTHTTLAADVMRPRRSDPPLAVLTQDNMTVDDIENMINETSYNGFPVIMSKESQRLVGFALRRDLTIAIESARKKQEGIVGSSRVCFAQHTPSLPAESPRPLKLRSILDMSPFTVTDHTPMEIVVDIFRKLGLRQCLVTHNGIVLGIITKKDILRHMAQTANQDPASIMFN
# [2] = system: KA-induced epileptic burst activities; assay: KA-induced epileptic burst activity in adult mice, EEG recording; type: in vivo, mouse; conditions: KA 10 mg/kg i.p., NaGcA 2 g/kg i.p., sodium salt
# Description: To test the in vivo anti-epilepsy effects of gluconate in neonatal and adult rodents, P8-12 Sprague-Dawley rats or 2-month old male C57BL/6 mice were deeply anesthetized with pentobarbital sodium (50 mg/kg for neonatal rat and 100 mg/kg for adult mice, intraperitoneal injection). Two stainless steel screws (1 mm in diameter) were inserted in the skull above the cortex as EEG recording electrodes, one ground electrode as well as one reference electrode were located +1.8 mm anterior to bregma, ±0.5 mm lateral to the midline, and 1 mm below the cortical surface. All electrodes were attached to a micro-connector and fixed onto the skull with dental cement. After surgery, neonatal rats were returned to their mothers and allowed to recover for 2 days prior to subsequent EEG recording. The adult mice were single housed in order to prevent damage of the implanted electrodes and allowed to recover at least 5 days before EEG recording.
# [3] = system: GABAA-R reversal potential (EGABA); assay: Gramicidin-perforated whole-cell recording of GABAA-R reversal potential (EGABA) in CA3 pyramidal neurons; type: cell-based, mouse
# Description: To further test this idea, the GABAA-R reversal potential (EGABA), which governs GABA excitatory versus inhibitory function, was directly measured using gramicidin-perforated whole-cell recordings in neonatal mouse brain slices (e.g., P8-P9). As expected, epileptiform activity induced a large depolarizing shift in EGABA after treating hippocampal slices with 0 Mg^2+ aCSF for 1 h (aCSF: −59.2±2.0 mV, n=13; 0 Mg^2+: −48.2±1.1 mV, n=10). FIG. 16D. Treatment with bumetanide (Bum, 10 μM), a specific blocker for NKCC1 at low concentrations, induced a hyperpolarizing shift in EGABA (blue line) as compared to a control EGABA (dashed line). […]. […] Kaila et al., “Cation-chloride cotransporters in neuronal development, plasticity and disease” Nature Reviews. Neuroscience 15:637-654 (2014); Dzhala et al., “NKCC1 transporter facilitates seizures in the developing brain” Nature Medicine 11:1205-1213 (2005); and Loscher et al., “Cation-chloride cotransporters NKCC1 and KCC2 as potential targets for novel antiepileptic and antiepileptogenic treatments” Neuropharmacology 69:62-74 (2013). […] FIG. 16E, yellow line; Bum, −68.0±1.7 mV (n=9); 0 Mg^2++Bum, −50.2±1.4 mV (n=9); (p<0.002).
# [4] = 0 Mg2+ aCSF, WT slices P8-12 pre-treated with 20 mM NaGcA
compound,measurement,setting,value
"O=C([O-])[C@H](O)[C@@H](O)[C@H](O)[C@H](O)CO.[Na+] [NaGcA, D-gluconic acid sodium salt]","Na+, K+ and Ca2+ currents",[1],no significant changes; also recorded: no effect
same,reduction of average power of epileptic activity,"hippocampal slices; 0 Mg2+ aCSF, 20 mM NaGcA, P6-8",59.6±4.3%
same,reduction of average power of epileptic activity,"hippocampal slices; 0 Mg2+ aCSF, 20 mM NaGcA, P10-12",62.1±3.8%
same,reduction of average power of epileptic activity,"hippocampal slices; 0 Mg2+ aCSF, 20 mM NaGcA, P21-33",23.8±4.1%
same,burst latency,hippocampal slices; [4],significantly prolonged
same,total burst activity,hippocampal slices; [4],significantly reduced
same,epileptic activity induced by 4-AP,"hippocampal slices; 50 μM 4-AP, neonatal slices, 20 mM NaGcA, sodium salt",significantly reduced; also recorded: attenuated
same,"epileptiform activity induced by 0 Mg2+ aCSF, neonatal slices","hippocampal slices; 20 mM NaGcA, P6-12, sodium salt",strong inhibition; also recorded: strong efficacy; also recorded: dramatically reduced; also recorded: potent anti-epileptic effect; also recorded: inhibited
same,"epileptiform activity induced by 0 Mg2+ aCSF, older animals","hippocampal slices; 20 mM NaGcA, P21-33 (P26), sodium salt",modest effect; also recorded: much less inhibition; also recorded: much smaller; also recorded: moderate anti-epileptic discharges effect; also recorded: less effect
same,reduction of the power amplitude,"hippocampal slices; 4-AP (50 μM) model, neonatal slices, 20 mM NaGcA",70.2±5.3%
same,reduction of the power amplitude,"hippocampal slices; high K+ (8.5 mM) model, neonatal slices, 20 mM NaGcA",70.8±4.9%
same,epileptic burst activity in high K+ model,"hippocampal slices; high K+ aCSF (8.5 mM), neonatal slices, 20 mM NaGcA, sodium salt",remarkably suppressed; also recorded: blocked; also recorded: dramatically reduced
same,Cl− currents after 0 Mg2+ treatment (inhibition),"CLC-3 Cl− channels; 0 Mg2+ aCSF 1 hr, 20 mM NaGcA, sodium salt",remarkable inhibition; also recorded: significantly inhibited; also recorded: significantly blocked; also recorded: remarkably inhibited
same,Cl− current density after 0 Mg2+ treatment,"CLC-3 Cl− channels; 0 Mg2+ aCSF 1 hr, recorded in 20 mM NaGcA, +90 mV",7.3±0.6 pA/pF
same,Cl− currents in neonatal CA3 pyramidal neurons,"CLC-3 Cl− channels; 20 mM NaGcA, neonatal, sodium salt",dramatically reduced; also recorded: potent inhibitor; also recorded: remarkably inhibited
same,Cl− currents in CLC-3 KO mice,"CLC-3 Cl− channels; CLC-3 KO mice, NaGcA, sodium salt",little inhibition; also recorded: no effect
same,Cl− current inhibition by gluconic acid with various counter ions,"CLC-3 Cl− channels; P8-12 neonatal mice, 20 mM NaGcA, 10 mM Mg(GcA)2, 20 mM gluconic acid",equivalent Cl− current inhibition
same,Cl− currents in adult brains,"CLC-3 Cl− channels; adult (P60-62), 20 mM NaGcA",no effect
same,KA-induced epileptic burst activities / EEG power in adult animals,[2]; listed as gluconate,less inhibition
same,KA-induced epileptic burst activities / EEG power in adult animals,[2],modest effect; also recorded: modestly inhibited
same,EGABA in 0 Mg2+ aCSF in CLC-3 KO mice,"[3]; CLC-3 KO mice, application of NaGcA",−56.6±2.4 mV
same,positive EGABA shift induced by 0 Mg2+ aCSF,[3]; neonatal CA3 neurons,completely abolishes
same,EGABA in 0 Mg2+ aCSF,"[3]; neonatal P8-P9, 0 Mg2+ aCSF, bumetanide 10 μM, VU0240551 10 μM, NaGcA 20 mM",−59.3±1.7 mV
same,EGABA in normal aCSF,"[3]; neonatal P8-P9, bumetanide 10 μM, VU0240551 10 μM, NaGcA 20 mM",−60.3±0.9 mV
